Counter-ions that a name gives are not always drawn.
Columns and labels:
Assay type in all cases: biochemical
[1] = biological target: T1, GST-tagged recombinant full-length human Pim-2 (Homo sapiens, UniProt Q9P1W9); assay: PIM-2 Assay (as Example A); details: averaged IC50; 4 μM ATP, 1.0 μM PIM2tide, 1.5 nM Pim-2
T1 construct: GST-tagged recombinant full-length human Pim-2; GST
Description: (§1) The assay for the determination of PIM-1 activity is based on the incorporation of [^33P]PO4 from [γ-^33P]ATP into PIM2tide substrate and capture of the radiolabeled peptide onto a Whatman P81 (phosphocellulose) filter plate. The amount of radiolabeled product is then measured by liquid scintillation counting. The final buffer conditions were as follows: 20 mM K^+MOPS, pH 7.4, 10 mM MgCl2, 0.005% Tween-20, 1 mM DTT. Assay mixtures contained 35 μM [γ-^33P]ATP (20 μCi/mL), 7.5 μM PIM2tide and 0.25 nM PIM-1 in a total volume of 50 μL. Incubations were carried out for 60 min at 22° C. and quenched with 75 μL of 200 mM H3PO4, filtered through a Whatman P81 plate and washed (1×200 μL and 5×100 μL) with 200 mM H3PO4. Fifty μL of liquid scintillation cocktail were then added per well, and the plate was counted for 30 s/well using a TopCount NXT.
(§2) Compounds were prepared at 50× the final concentration in DMSO by conducting 3-fold serial dilutions from a 500-μM intermediate dilution to give a 10-point dosing curve having a high dose of 10 μM. One-μL aliquots of these were then transferred to the assay mixtures above to give a final concentration of DMSO of 2%. A standard or reference compound was typically included on each assay plate to validate that plate. For each plate, percent of control (POC) values were calculated for each well. IC50 values were estimated from the POC values using a standard 4-parameter logistic model. The IC50 is defined as the concentration of inhibitor at which the POC equals 50 for the fitted curve.
Assay was performed as described in Example A, using 4 μM [γ-^33P]ATP (20 μCi/mL), 1.0 μM PIM2tide and 1.5 nM GST-tagged recombinant full-length human Pim-2 in place of PIM-1.

recombinant rat PIM-3 = recombinant rat PIM-3 (Rattus norvegicus, UniProt O70444); assay: PIM-3 Assay (as Example A); details: averaged IC50; 30 μM ATP, 3.75 μM PIM2tide, 0.5 nM PIM-3
Description: as §1, §2
Assay was performed as described in Example A, using 30 μM [γ-^33P]ATP (20 μCi/mL), 3.75 μM PIM2tide and 0.5 nM recombinant rat PIM-3 in place of PIM-1.

PIM-1 = PIM-1 (Homo sapiens, UniProt P11309); assay: Enzyme PIM-1 Assay ([33P]ATP incorporation into PIM2tide, filter plate); details: averaged IC50; 35 μM ATP, 7.5 μM PIM2tide, 0.25 nM PIM-1, 60 min at 22° C.
PIM-1, sequence (P11309 whole entry, species assumed): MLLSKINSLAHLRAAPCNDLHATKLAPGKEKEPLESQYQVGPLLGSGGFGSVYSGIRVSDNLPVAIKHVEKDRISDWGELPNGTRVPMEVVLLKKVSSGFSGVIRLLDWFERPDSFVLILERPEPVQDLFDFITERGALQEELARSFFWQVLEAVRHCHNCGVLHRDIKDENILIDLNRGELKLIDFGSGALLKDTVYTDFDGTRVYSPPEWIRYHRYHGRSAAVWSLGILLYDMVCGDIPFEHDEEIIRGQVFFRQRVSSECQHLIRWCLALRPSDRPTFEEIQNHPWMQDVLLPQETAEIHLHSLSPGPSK
Description: as §1, §2

T1 sequence (Q9P1W9 whole entry): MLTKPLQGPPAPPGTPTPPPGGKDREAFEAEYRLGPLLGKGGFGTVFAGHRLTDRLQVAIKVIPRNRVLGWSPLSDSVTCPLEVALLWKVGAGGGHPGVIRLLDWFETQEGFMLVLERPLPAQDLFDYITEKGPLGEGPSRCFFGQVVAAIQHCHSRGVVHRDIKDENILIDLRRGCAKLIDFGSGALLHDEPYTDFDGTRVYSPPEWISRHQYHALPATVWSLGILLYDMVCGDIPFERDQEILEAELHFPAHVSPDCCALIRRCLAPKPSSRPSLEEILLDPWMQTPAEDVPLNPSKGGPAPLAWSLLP

| SMILES | IC50 [1] [nM] | IC50 (recombinant rat PIM-3) [nM] | IC50 (PIM-1) [nM] |
| --- | --- | --- | --- |
| COc1cccc2ccc(-c3nnc4ccc([C@@H](N5CC[C@H](NCCF)C5)C(F)(F)F)cn34)nc12 [Example 80, (S)—N-(2-fluoroethyl)-1-((R)-2,2,2-trifluoro-1-(3-(8-methoxyquinolin-2-yl)-[1,2,4]triazolo[4,3-a]pyridin-6-yl)ethyl)pyrrolidin-3-amine dihydrochloride] | > 100 | 32 | 6.41 |
| CCC(C)(C)NC(=O)c1ccc2ccc(-c3nnc4ccc([C@@H](N5CC[C@@H](N)C5)C(F)(F)F)cn34)nc2c1 [Example 59, 2-(6-((R)-1-((R)-3-aminopyrrolidin-1-yl)-2,2,2-trifluoroethyl)-[1,2,4]triazolo[4,3-a]pyridin-3-yl)-N-tert-pentylquinoline-7-carboxamide dihydrochloride] | > 100 | 0.8 | 0.56 |
| Cc1cnn(-c2ccc3ccc(-c4nnc5ccc([C@@H](N6CC[C@H](N)C6)C(F)(F)F)cn45)nc3c2C)c1 [Example 190, (S)-1-((R)-2,2,2-trifluoro-1-(3-(8-methyl-7-(4-methyl-1H-pyrazol-1-yl)quinolin-2-yl)-[1,2,4]triazolo[4,3-a]pyridin-6-yl)ethyl)pyrrolidin-3-amine dihydrochloride] | > 100 | 1 | 1.03 |
| COc1cccc2ccc(-c3nnc4ccc([C@@H](N5CC[C@@](N)(CF)C5)C(F)(F)F)cn34)nc12 (single isomer, unassigned) [Example 169] | > 100 | 36 | 6.65 |
| CSCCOc1ccc2ccc(-c3nnc4ccc([C@@H](N5CC[C@H](N)C5)C(F)(F)F)cn34)nc2c1 [Example 281, (S)-1-((R)-2,2,2-trifluoro-1-(3-(7-(2-(methylthio)ethoxy)quinolin-2-yl)-[1,2,4]triazolo[4,3-a]pyridin-6-yl)ethyl)pyrrolidin-3-amine hydrochloride] | 242 | 0.7 | 0.26 |
| CC(C)Oc1cccc2ccc(-c3nnc4ccc([C@H](N5CCC(C)(O)C5)C(F)(F)F)cn34)nc12 (single isomer, unassigned; diastereomer 1) [Example 199] | > 1000 | 30 | 18.7 |
| C[C@H](CO)Oc1cccc2ccc(-c3nnc4ccc([C@@H](N5CC[C@H](NCC6CC6)C5)C(F)(F)F)cn34)nc12 [Example 230, dihydrochloride] | 211 | 3.2 | 0.64 |
| COC[C@H](C)Oc1ccc2ccc(-c3nnc4ccc([C@@H](N5CC[C@H](N)C5)C(F)(F)F)cn34)nc2c1 [Example 150, (S)-1-((R)-2,2,2-trifluoro-1-(3-(7-((S)-1-methoxypropan-2-yloxy)quinolin-2-yl)-[1,2,4]triazolo[4,3-a]pyridin-6-yl)ethyl)pyrrolidin-3-amine dihydrochloride] | > 100 | 3.5 | 0.41 |
| COCCOc1cccc2ccc(-c3nnc4ccc([C@@H](N5CC[C@H](N)C5)C(F)(F)F)cn34)nc12 [Example 227, (S)-1-((R)-2,2,2-trifluoro-1-(3-(8-(2-methoxyethoxy)quinolin-2-yl)-[1,2,4]triazolo[4,3-a]pyridin-6-yl)ethyl)pyrrolidin-3-amine dihydrochloride] | 453 | 2.5 | 0.48 |
| COc1cccc2ccc(-c3nnc4ccc(C(N5CC[C@H](O)C5)C(F)(F)F)cn34)nc12 (stereo partly drawn) [Example 7, (3S)-1-(2,2,2-trifluoro-1-(3-(8-methoxyquinolin-2-yl)-[1,2,4]triazolo[4,3-a]pyridin-6-yl)ethyl)pyrrolidin-3-ol] | > 1000 | 45 | 3.94 |
| N[C@H]1CCN([C@H](c2ccc3nnc(-c4ccc5cc(F)c(OC(F)F)cc5n4)n3c2)C(F)(F)F)C1 [Example 215, (S)-1-((R)-1-(3-(7-(difluoromethoxy)-6-fluoroquinolin-2-yl)-[1,2,4]triazolo[4,3-a]pyridin-6-yl)-2,2,2-trifluoroethyl)pyrrolidin-3-amine dihydrochloride] | > 1000 | 3.1 | 0.47 |
| CC(C)Oc1cc(F)cc2ccc(-c3nnc4ccc([C@H](N5CCC(C)(O)C5)C(F)(F)F)cn34)nc12 (single isomer, unassigned; diastereomer 2) [Example 203, hydrochloride] | > 1000 | 37 | 19.8 |
| COc1cc(F)cc2ccc(-c3nnc4ccc([C@@H](N5CC[C@H](N)C5)C(F)(F)F)cn34)nc12 [Example 115, (S)-1-((R)-2,2,2-trifluoro-1-(3-(6-fluoro-8-methoxyquinolin-2-yl)-[1,2,4]triazolo[4,3-a]pyridin-6-yl)ethyl)pyrrolidin-3-amine hydrochloride] | > 100 |  | 0.29 |
| CCOc1cc2nc(-c3nnc4ccc([C@@H](N5CC[C@H](N)C5)C(F)(F)F)cn34)ccc2cc1F [Example 133, (S)-1-((R)-1-(3-(7-ethoxy-6-fluoroquinolin-2-yl)-[1,2,4]triazolo[4,3-a]pyridin-6-yl)-2,2,2-trifluoroethyl)pyrrolidin-3-amine hydrochloride] | 77 |  | 0.16 |
| CC(C)(C)OC(=O)N[C@@H]1CCN([C@@H](c2ccc3nnc(-c4ccc5ccc(C(=O)O)cc5n4)n3c2)C(F)(F)F)C1 [Example 85, 2-(6-((S)-1-((R)-3-(tert-butoxycarbonylamino)pyrrolidin-1-yl)-2,2,2-trifluoroethyl)-[1,2,4]triazolo[4,3-a]pyridin-3-yl)quinoline-7-carboxylic acid] |  | 18 |  |

The remaining molecules from weak to strong by IC50 [1], led by results:

| IC50 [1] [nM] | IC50 (recombinant rat PIM-3) [nM] | IC50 (PIM-1) [nM] | SMILES |
| --- | --- | --- | --- |
| 74 | 1 | 0.19 | N[C@H]1CCN(C(c2ccc3nnc(-c4ccc5ccc(Br)cc5n4)n3c2)C(F)(F)F)C1 (stereo partly drawn) [Example 2, (3S)-1-(1-(3-(7-bromoquinolin-2-yl)-[1,2,4]triazolo[4,3-a]pyridin-6-yl)-2,2,2-trifluoroethyl)pyrrolidin-3-amine dihydrochloride] |
| 68 | 1.1 | 0.65 | CCOc1cc2nc(-c3nnc4ccc([C@H](N5CC[C@@H](N)C5)C(F)(F)F)cn34)ccc2cc1F [Example 292, (R)-1-((S)-1-(3-(7-ethoxy-6-fluoroquinolin-2-yl)-[1,2,4]triazolo[4,3-a]pyridin-6-yl)-2,2,2-trifluoroethyl)pyrrolidin-3-amine hydrochloride] |
| 64 | 0.4 | 0.36 | COCCc1ccc2ccc(-c3nnc4ccc([C@H](N5CC[C@](C)(N)C5)C(F)(F)F)cn34)nc2c1 [Example 300, (S)-3-methyl-1-((S)-2,2,2-trifluoro-1-(3-(7-(2-methoxyethyl)quinolin-2-yl)-[1,2,4]triazolo[4,3-a]pyridin-6-yl)ethyl)pyrrolidin-3-amine dihydrochloride] |
| 50 |  |  | COCCc1cc2nc(-c3nnc4ccc([C@H](N5CC[C@](C)(N)C5)C(F)(F)F)cn34)ccc2cc1F [Example 311, (S)-3-methyl-1-((S)-2,2,2-trifluoro-1-(3-(6-fluoro-7-(2-methoxyethyl)quinolin-2-yl)-[1,2,4]triazolo[4,3-a]pyridin-6-yl)ethyl)pyrrolidin-3-amine] |
| 44.6 | 0.21 | 0.18 | CO[C@H](C)COc1cc2nc(-c3nnc4ccc([C@H](N5CC[C@](C)(N)C5)C(F)(F)F)cn34)ccc2cc1F [Example 324, (S)-3-methyl-1-((S)-2,2,2-trifluoro-1-(3-(6-fluoro-7-((R)-2-methoxypropoxy)quinolin-2-yl)-[1,2,4]triazolo[4,3-a]pyridin-6-yl)ethyl)pyrrolidin-3-amine di-hydrochloride] |
| 18 | 2 | 1.45 | FC(F)(F)[C@@H](c1ccc2nnc(-c3ccc4cccc(C5CC5)c4n3)n2c1)N1C[C@@H]2C[C@H]1CN2 [Example 65, 2-(6-((R)-1-((1S,4S)-2,5-diazabicyclo[2.2.1]heptan-2-yl)-2,2,2-trifluoroethyl)-[1,2,4]triazolo[4,3-a]pyridin-3-yl)-8-cyclopropylquinoline dihydrochloride] |
| 2.9 | 1.4 | 0.71 | CC(C)(C)c1cccc2ccc(-c3nnc4ccc([C@@H](N5C[C@@H]6C[C@H]5CN6)C(F)(F)F)cn34)nc12 [Example 62, 2-(6-((R)-1-((1S,4S)-2,5-diazabicyclo[2.2.1]heptan-2-yl)-2,2,2-trifluoroethyl)-[1,2,4]triazolo[4,3-a]pyridin-3-yl)-8-tert-butylquinoline] |

— patent US8889704B2 (Array BioPharma Inc., priority 2011, dated 2014)
